Patent US5733754A, “Enzyme and its use in preparing (S)-pipecolic acid” (Chiroscience Limited, priority 1993, dated 1998)

Columns and labels:
[1] = tested on: N-acyl-pipecolic acid acylase; assay: Alternative substrates: activity of semi-purified enzyme preparation on N-acetylamino-acids; assay type: biochemical, Alcaligenes denitrificans; conditions: 1 ml substrate 40 g/l + 0.5 ml enzyme + 0.5 ml 100 mM Tris buffer pH 7.5; 24-25° C., 1 hour
Description: The sonicate supernatants were then used in the following biotransformation reactions. To 1 ml of the sonicate supernatants, 1 ml of 40 g/l solution of N-acetyl-rac-pipecolate, pH 7, was added in the presence of 0.02% sodium azide. The biotransformation reaction mixtures were incubated with shaking for 48 h at 25° C., after which samples were removed and analysed by HPLC. HPLC analysis was done using a 15 cm Hichrom S50DS2 column with an isocratic mobile phase of 30% methanol:70% 10 mM potassium phosphate buffer, pH 3, at a flow rate of 1 ml/min. The injection volume was 20 μl and the detection was at 240 nm, total run time was 10 minutes. Prior to loading on to the column, the sample was diluted 20-fold in the HPLC mobile phase and centrifuged. The analyses as shown by this procedure provided values of residual substrate concentrations. A substrate control was run in parallel with the sample reactions.
(§1) The activity of a semi-purified enzyme preparation, as described in Example 4, was tested on a range of alternative substrates. Various N-acetylamino-acid solutions were prepared at a concentration of 40 g/l in 100 mM Tris buffer at pH 7.5. Reactions were then set up using 1 ml of reaction substrate plus 0.5 ml enzyme plus 0.5 ml 100 mM Tris buffer, pH 7.5. The reaction mixtures were shaken at 24°-25° C. for 1 hour before being analysed for amino-acid formation. The extent of reaction for the N-acetylpipecolic acid and N-acetylproline biotransformations was determined using the HPLC methodology described in Example 1. The extent and enantioselectivity of the other biotransformations was determined using a Nucleosil Chiral-1 (ET250/8/4 with a buffer phase of 1 mM copper acetate at pH 5 in 5% methanol, and a flow rate of 0.8 ml/min, with detection at 254 nm. Samples were diluted 100-fold and areas compared to relevant standards.

[2] = tested on: N-acylamino-acid acylase of EP-A-0416282; conditions: cited from earlier work
[3] = tested on: N-acyl-pipecolic acid acylase (amino acylase); assay: Alternative buffers: effect of high phosphate on the biotransformation; assay type: biochemical, Alcaligenes denitrificans; conditions: for Amino-acid formed: pH 7.5
Description: as §1
The acylase disclosed in EP-A-0416282 is inhibited by reaction in buffers containing phosphate at high concentrations. The effect of high phosphate on the biotransformation was determined using a similar methodology to that described in Example 6.

[4] = tested on: N-acetyl-pipecolic acid acylase activity; assay: Use of inducer: flask cultures with additive, acylase activity of the cell extract; assay type: cell-based, Alcaligenes denitrificans; conditions: for Specific (activity) / Volumetric Activity: additive in growth medium (5 g/l), extract used in 24 hour biotransformation of 20 g/l N-acetyl-(R,S)-pipecolic acid, 1U = release of 1 μmole pipecolic acid per minute
Description: It has been observed by other workers that an inducer must be added to the fermentation medium to obtain N-acyl-amino-acid acylase activity. This adds to the cost of producing the enzyme. Flask cultures were set up to determine the requirement for an inducer. Medium used was similar to that described in Table 1, except that the N-acetyl-L-phenylalanine was omitted, 1 g/l yeast extract was added and the following 4 variations were set up.
The final pH of all flasks was adjusted to pH 7.0 and a total of 50 ml added to 500 ml conical flasks. Following inoculation, the flasks were incubated at 25° C. with shaking for 19 hours. The cells were then collected by centrifugation, resuspended in 10 mM phosphate buffer, pH 7 and lysed by sonication. The released enzyme extract was then used in a 24 hour biotransformation of 20 g/l N-acetyl-(R,S)-pipecolic acid.
1U = release of 1 μmole pipecolic acid per minute

CC(=O)NC(Cc1ccc(C#N)cc1)C(=O)O (racemic) [N-acetyl-(R,S)-4-cyanophenylalanine]
Amino-acid formed [1]: 8.3 g/L

CC(=O)NCCCC[C@H](N)C(=O)O [εN-acetyl-(S)-lysine]
Amino-acid formed [1]: 0.0 g/L

CC(=O)NC(C)C(=O)O (racemic) [N-acetyl-(R,S)-alanine]
activity of the enzyme against substrate ([2]; enzyme of EP-A-0416282): non-detectable
Amino-acid formed [1]: 3.4 g/L

CC(=O)N1CCCCC1C(=O)O (racemic) [N-acetyl-(R,S)-pipecolic acid]
Amino-acid formed ([3]; 100 mM Phosphate): 6.3 g/L
Amino-acid formed ([3]; 100 mM Tris): 6.3 g/L
Specific (activity) [4]: 0.086 U/mg protein
Volumetric Activity [4]: 0.017 U/ml
Amino-acid formed [1]: 6.3 g/L

CC(=O)NC(Cc1ccccc1)C(=O)O (racemic) [N-acetyl-(R,S)-phenylalanine]
activity of the enzyme against substrate ([2]; enzyme of EP-A-0416282): non-detectable
Amino-acid formed [1]: 5.3 g/L

N-acyl-pipecolic acid
activity of the enzyme relative to its activity on N-acetyl-proline ([2]; enzyme of EP-A-0416282): less than 5%

CC(=O)N1CCC[C@H]1C(=O)O [N-acetyl-(S)-proline]
Amino-acid formed ([3]; 100 mM Phosphate): 3.2 g/L
Amino-acid formed ([3]; 100 mM Tris): 3.2 g/L
Specific (activity) [4]: 0.033 U/mg protein
Volumetric Activity [4]: 0.042 U/ml
Amino-acid formed [1]: 3.2 g/L

O=C[C@H](O)[C@@H](O)[C@H](O)[C@H](O)CO [Glucose]
N-acetyl-pipecolic acid acylase activity of the flask ([4]; additive 5 g/l in growth medium): no N-acetyl-pipecolic acid acylase activity
Volumetric Activity [4]: 0.00 U/ml

phosphate
inhibition of the acylase by buffer ([2]; buffers containing phosphate at high concentrations): inhibited
inhibitory effect on the amino acylase ([3]; final phosphate concentration equal to or greater than 75 mM): no significant inhibitory effect

CC(=O)NC(CCC(=O)O)C(=O)O (racemic) [N-acetyl-(R,S)-glutamic acid]
Amino-acid formed [1]: 0.2 g/L
